Assay results from paper PMC9146228, “Bioactivity of Novel Pyrazole-Thiazolines Scaffolds against Trypanosoma cruzi: Computational Approaches and 3D Spheroid Model on Drug Discovery for Chagas Disease” (Pharmaceutics, 2022).
Read-outs that look alike come from different tables or passages of the source.

Key:
[1] = system: T. cruzi (Dm28c-Luc) intracellular amastigotes; test: Trypanocidal activity against intracellular amastigotes in infected Vero cell monolayers; format: cell-based, Trypanosoma cruzi; conditions: for IC90: read-out: Trypanocidal Activity Intracellular Amastigotes IC90; for Intracellular Amastigotes SI (CC50 of Vero cells/IC50): selectivity index vs Vero cells
Description: The susceptibility of intracellular amastigotes to pyrazole-thiazoline derivatives (series 1 and 2) was evaluated using 24 h T. cruzi-infected Vero cell monolayers (10:1 parasite/host cell ratio). Then, the cultures were washed with PBS to remove non-internalized parasites, and 200 μL of fresh medium with a serial dilution of pyrazole-thiazoline derivatives and Bz (0.41–100 µM) was added for 72 h at 37 °C.
(§1) After 72 h of treatment, luciferin (300 µg/mL) was added to the culture, and the viability of the parasites was assessed by reading the luminescent signal on the GloMax reader (Promega Corporation, Madison, WI, USA). Controls were also performed in non-toxic concentrations of DMSO (≤ 1%). The concentration that reduces the number of viable parasites by 50% (IC50) or 90% (IC90) was calculated by linear regression. The selectivity index (SI) was calculated as CC50/IC50 for each parasite form.

[2] = Cytotoxicity in vitro assay (CellTiter-Glo); format: cell-based; conditions: African green monkey, Vero cells, mean ± SD
Description: Vero cells, obtained from the Rio de Janeiro Cell Bank (BCRJ code 0245), were dissociated with trypsin–EDTA solution (0.025%), and maintained in RPMI 1640 medium supplemented with 10% fetal bovine serum (FBS) at 37 °C in a humidified atmosphere of 5% CO2.
The compound toxicity was evaluated in Vero cell cultures. Briefly, Vero cells were seeded in 96-well white culture plates at a density of 1.5 × 10^4 cells/well for 24 h at 37 °C and 5% CO2. Thereafter, the cell monolayers were washed with phosphate-buffered saline (PBS) and 200 μL of fresh medium with a serial dilution of the pyrazole-thiazoline derivatives and Bz (1.9–500 µM) added. The cell viability was determined by luminescent assay using the CellTiter-Glo Kit (Promega Corporation, Madison, WI, USA) based on the ATP level. After 72 h of treatment, 20 μL of CellTiter-Glo solution was added per well, and cultures were kept for 2 min under agitation. The luminescent signal was read on the GloMax reader (Promega Corporation, Madison, WI, USA). The concentration of compounds that reduced 50% of cell viability (CC50) was calculated by linear regression. At least three independent assays were performed in duplicate.

[3] = system: T. cruzi (Dm28c-Luc) trypomastigotes; test: microbe, parasite or virus in culture; format: cell-based, Trypanosoma cruzi; conditions: for IC50 / IC90: Trypanosoma cruzi, 24 h, Dm28c-Luc, mean ± SD; for IC50: read-out: Trypanocidal Activity Trypomastigotes IC50; for IC90: read-out: Trypanocidal Activity Trypomastigotes IC90; for Trypomastigotes SI (CC50 of Vero cells/IC50): selectivity index vs Vero cells
Description: The screening assays were performed with T. cruzi clone Dm28c (TcI) genetically modified to express luciferase gene (Dm28c-Luc), kindly provided by Dr. Cristina Henriques. Trypomastigotes were isolated from T. cruzi-infected Vero cell monolayers (10:1 parasites/host cell ratio). On the 4th day post-infection (dpi), free trypomastigotes in the culture supernatant were harvested, and the number of parasites/mL was quantified in a Neubauer chamber.
The trypanocidal activity of the pyrazole-thiazoline derivatives was evaluated against trypomastigote and intracellular amastigote forms of T. cruzi (Dm28c-Luc). Tissue-derived trypomastigotes (1 × 10^6 parasites/well) were incubated with pyrazole-thiazoline derivatives and Bz in different concentrations (0.41–100 µM) for 24 h at 37 °C in a humidified atmosphere and 5% CO2. The parasite viability was determined by the addition of luciferin (300 µg/mL), followed by luminescence detection on the GloMax microplate reader (Promega Corporation, Madison, WI, USA).
as §1

[4] = Trypanosoma cruzi, Vero, 72 h, Dm28c-Luc in Vero cells, 72 h, mean ± SD, read-out: Trypanocidal Activity Intracellular Amastigotes IC50
[5] = Trypanosoma cruzi, Vero, pIC50 = −log IC50, Dm28c-Luc clone, read-out: Intracellular Amastigotes pIC50 (converted)
[6] = Trypanosoma cruzi, Dm28c-Luc in Vero cells, 72 h, mean ± SD
[7] = Dm28c-Luc in Vero cells, 72 h, mean ± SD, read-out: Trypanocidal Activity Intracellular Amastigotes IC50

SMILES | IC50 [1, 4] [µM] | IC50 [1, 5] [µM] | IC90 [1, 6] [µM] | Intracellular Amastigotes SI (CC50 of Vero cells/IC50) [1] | CC50 at 72 h [2] [µM] | melting point [°C] | IC50 [3] [µM] | IC90 [3] [µM] | Trypomastigotes SI (CC50 of Vero cells/IC50) [3] | IC50 [1, 7] [µM]
Nc1c(C2=NCCS2)cnn1-c1cccc(Br)c1 [Compound 1j, 2-(5-amino-1-(3-bromophenyl)-1H-pyrazol-4-yl)-4,5-dihydrothiazole] | 26.6 ± 3.1 | 26.9 | > 100 | >18.7 | > 500 | 171 to 173 | 52.3 ± 3.4 | > 100 | >9.5 | –
COc1ccc(-n2ncc(C3=NCCS3)c2N)cc1 [Compound 1k, 2-(5-amino-1-(4-methoxyphenyl)-1H-pyrazol-4-yl)-4,5-dihydrothiazole] | 79.1 ± 4.4 | 79.4 | 97.3 ± 4.7 | >6.3 | > 500 | 164 to 166 | 12 ± 3.5 | 93.4 ± 5.5 | >39.9 | –
Nc1c(C2=NCCS2)cnn1-c1cccc(Cl)c1 [Compound 1b, 2-(5-amino-1-(3-chlorophenyl)-1H-pyrazol-4-yl)-4,5-dihydrothiazole] | 95.7 ± 4.8 | 97.7 | > 100 | 5.2 | > 500 | 186 to 189 | 96.9 ± 3.1 | > 100 | >5.2 | –
Fc1ccc(-n2cc(C3=NCCS3)cn2)cc1 [Compound 2g, 2-(1-(4-fluorophenyl)-1H-pyrazol-4-yl)-4,5-dihydrothiazole] | 14 ± 1.8 | 14.1 | 98 ± 3.4 | 4.18 | 58.6 ± 8.11 | 131 to 133 | 7.9 ± 1 | 30.1 ± 2.8 | 7.3 | –
Clc1ccc(-n2cc(C3=NCCS3)cn2)cc1 [Compound 2f, 2-(1-(4-chlorophenyl)-1H-pyrazol-4-yl)-4,5-dihydrothiazole] | < 10 | ~10 | 33.5 ± 4.4 | 12.0 | 91.7 ± 13.1 | 130 to 133 | 0.6 ± 0.3 | 13.3 ± 2.3 | 143.6 | 7.6 ± 2.5
Nc1c(C2=NCCS2)cnn1-c1cccc(F)c1 [Compound 1h, 2-(5-amino-1-(3-fluorophenyl)-1H-pyrazol-4-yl)-4,5-dihydrothiazole] | > 100 | > 100 | > 100 | <5 | > 500 | 230 to 232 | > 100 | > 100 | <5 | –
Nc1c(C2=NCCS2)cnn1-c1cccc(Cl)c1Cl [Compound 1l, 2-(5-amino-1-(2,3-dichlorophenyl)-1H-pyrazol-4-yl)-4,5-dihydrothiazole] | 11.1 ± 2 | 11.2 | > 100 | >44.9 | > 500 | 188 to 190 | > 100 | > 100 | <5 | –
Clc1cc(Cl)cc(-n2cc(C3=NCCS3)cn2)c1 [Compound 2d, 2-(1-(3,5-dichlorophenyl)-1H-pyrazol-4-yl)-4,5-dihydrothiazole] | > 100 | > 100 | > 100 | <5 | > 500 | 134 to 136 | > 100 | > 100 | <5 | –
Nc1c(C2=NCCS2)cnn1-c1ccccc1 [Compound 1a, 2-(5-amino-1-phenyl-1H-pyrazol-4-yl)-4,5-dihydrothiazole] | 80.7 ± 3.9 | 81.3 | > 100 | 3.1 | 248 ± 22 | 176 to 178 | 66.4 ± 2.7 | > 100 | 3.7 | –
COc1ccc(-n2cc(C3=NCCS3)cn2)cc1 [Compound 2k, 2-(1-(4-methoxyphenyl)-1H-pyrazol-4-yl)-4,5-dihydrothiazole] | 22.4 ± 2.8 | 22.9 | 53 ± 9.8 | 4.9 | 110 ± 9.4 | 114 to 116 | 3.1 ± 0.3 | 36.1 ± 2.6 | 36.1 | –
Nc1c(C2=NCCS2)cnn1-c1ccc(Br)cc1 [Compound 1i, 2-(5-amino-1-(4-bromophenyl)-1H-pyrazol-4-yl)-4,5-dihydrothiazole] | > 100 | > 100 | > 100 | <5 | > 500 | 282 to 284 | 49.3 ± 4.7 | > 100 | >10.1 | –
c1ccc(-n2cc(C3=NCCS3)cn2)cc1 [Compound 2a, 2-(1-phenyl-1H-pyrazol-4-yl)-4,5-dihydrothiazole] | 10.7 ± 2.2 | 10.7 | 89 ± 2.6 | 17.4 | 187 ± 12.7 | 112 to 114 | 1.1 ± 0.3 | 10.4 ± 1.1 | 166.8 | –
Brc1cccc(-n2cc(C3=NCCS3)cn2)c1 [Compound 2j, 2-(1-(3-bromophenyl)-1H-pyrazol-4-yl)-4,5-dihydrothiazole] | < 10 | ~10 | 31.1 ± 3.1 | 7.9 | 64.5 ± 7.3 | 104 to 106 | 9.1 ± 0.9 | 48.2 ± 4.1 | 7.11 | 8.1 ± 1.3
Nc1c(C2=NCCS2)cnn1-c1ccc(Cl)c(Cl)c1 [Compound 1e, 2-(5-amino-1-(3,4-dichlorophenyl)-1H-pyrazol-4-yl)-4,5-dihydrothiazole] | > 100 | > 100 | > 100 | <5 | > 500 | 279 to 282 | > 100 | > 100 | <5 | –
Nc1c(C2=NCCS2)cnn1-c1ccc(Cl)cc1Cl [Compound 1c, 2-(5-amino-1-(2,4-dichlorophenyl)-1H-pyrazol-4-yl)-4,5-dihydrothiazole] | > 100 | > 100 | > 100 | <5 | > 50 | 209 to 212 | > 100 | > 100 | <5 | –
Fc1cccc(-n2cc(C3=NCCS3)cn2)c1 [Compound 2h, 2-(1-(3-fluorophenyl)-1H-pyrazol-4-yl)-4,5-dihydrothiazole] | < 10 | ~10 | 76.3 ± 6.1 | 4.19 | 37.9 ± 4.8 | 92 to 94 | 9.8 ± 1.5 | 36.3 ± 3.2 | 3.8 | 9.1 ± 1.7
